Consider 27 compounds from patent US20240239752A1, “BICYCLIC HETEROAROMATIC INHIBITORS OF KLK5” (BioCryst Pharmaceuticals, Inc., priority 2021, published 2024).

Some results are limits rather than exact numbers.

The test addresses T1, recombinant human KLK5 (Homo sapiens, UniProt Q9Y337).
T1 construct: purchased Novoprotein or R&D Systems C415 or 1108-SE
T1 sequence (Q9Y337 23-293): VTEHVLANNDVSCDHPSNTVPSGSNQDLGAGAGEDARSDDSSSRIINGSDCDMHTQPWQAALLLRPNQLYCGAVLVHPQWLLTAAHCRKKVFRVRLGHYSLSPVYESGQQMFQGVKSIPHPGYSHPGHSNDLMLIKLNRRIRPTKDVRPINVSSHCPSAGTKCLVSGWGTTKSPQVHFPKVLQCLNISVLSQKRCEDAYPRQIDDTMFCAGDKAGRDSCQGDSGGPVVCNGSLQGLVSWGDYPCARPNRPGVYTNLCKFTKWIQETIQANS
Nature of the test: Kallikrein (KLK) 5 enzymatic assay (Boc-VPR-AMC fluorogenic substrate). The format is biochemical. The following applies: recombinant human KLK5 0.1 μg/well, Boc-VPR-AMC 100 μM, pH 7.5, room temperature, 1% DMSO; tested a minimum of three times. The text has this: Kallikrein-5 (KLK5) is a member of the serine protease family of proteolytic enzymes, confirmed to have trypsin-like activity (Michael I P, et al. Biochemical and enzymatic characterization of human kallikrein 5 (hK5), a novel serine protease potentially involved in cancer progression (J. Biol. Chem. 2005 Apr. 15; 280 (15): 14628-35). Boc-VPR-AMC is a fluorogenic peptide substrate composed of the short peptide chain, Valine-Proline-Arginine (VPR) and the fluorophore, 7-amino-4-methylcoumarin (AMC). KLK5 is able to cleave the fluorogenic peptide substrate Boc-VPR-AMC, releasing the AMC fluorophore, which causes a fluorescent emission in proportion with the enzymatic activity of KLK5. The KLK5 enzymatic activity is monitored by measuring fluorescent emission at wavelengths of 380 nm (excitation) and 460 nm (emission).
The IC50 value of compounds against KLK5 (i.e., the concentration of the compound that inhibits 50% of the enzymatic activity) was calculated according to the procedure reported by R&D systems (Recombinant human KLK5, Catalog Number: 1108-SE), with the exception the pH of the assay was modified from 8.0 to 7.5. Specifically, recombinant human KLK5 (Novoprotein Catalog #C415 or R&D systems Catalog #1108-SE) and fluorogenic peptide Boc-VPR-AMC substrate (R&D Catalog #ES011) were each separately diluted in assay buffer (0.1 M NaH2PO4 buffer, pH 7.5). The compounds of the disclosure were dissolved in DMSO at a concentration of 10 mM. A portion of this stock solution was added to the recombinant human KLK5 solution to provide a desired concentration of the compounds and the mixture was incubated at room temperature. The reaction was initiated by the addition of the fluorogenic peptide substrate at room temperature. The final concentration of recombinant human KLK5 was 0.1 μg/well and the final concentration of the fluorogenic substrate was 100 μM (final volume of 100 μL, 1% DMSO). The assays were performed in 96 well F16 Black Maxisorp Plate (Nunc Catalog #475515). Controls included assay buffer alone and enzyme solutions to which DMSO was added. The reaction rates were measured spectrophotometrically by excitation at 380 nm and emission at 460 nm on a Biotek Synergy H1 plate reader.
The reaction rate for enzyme alone was compared to the reaction rate of enzyme in the presence of compound and the percent inhibition was calculated as shown below:
Percent Inhibition=[Rate with inhibitor/Rate without inhibitor)]×100
An IC50 indicates a compound concentration that inhibits 50% of the enzymatic activity. Compounds were tested a minimum of three times.
For the compound `CC(C)n1nc(COc2ccccc2CC(=O)O)c2cc(-c3cccc(-c4cnc[nH]4)c3)ccc21` [Compound 51c, 2-(2-((5-(3-(1H-imidazol-5-yl)phenyl)-1-isopropyl-1H-indazol-3-yl)methoxy)phenyl)acetic acid], the half-maximal inhibitory concentration (IC50) is over 10 µM. As to `CC(C)n1nc(COc2ccccc2CC(=O)O)c2cc(-c3cccc(-c4nnc[nH]4)c3)ccc21` [Compound 52c, 2-(2-((5-(3-(4H-1,2,4-triazol-3-yl)phenyl)-1-isopropyl-1H-indazol-3-yl)methoxy)phenyl)acetic acid], the IC50 was over 10 µM. In the case of `CC(C)n1nc(COc2ccccc2CC(=O)O)c2cc(-c3ccnc4c(N)cccc34)ccc21` [Compound 53c, 2-(2-((5-(8-aminoquinolin-4-yl)-1-isopropyl-1H-indazol-3-yl)methoxy)phenyl)acetic acid], the IC50 was over 10 µM. Take `CC(C)n1nc(COc2ccccc2CC(=O)O)c2cc(-c3cccc4c(N)nn(C)c34)ccc21` [Compound 54c, 2-(2-((3′-amino-1-isopropyl-1′-methyl-1H, 1′H-[5,7′-biindazol]-3-yl)methoxy)phenyl)acetic acid]: the IC50 was over 10 µM. Consider `CC(C)n1nc(COc2ccccc2CC(=O)O)c2cc(-c3ccc4ncc(N)n4n3)ccc21` [Compound 55c, 2-(2-((5-(3-aminoimidazo[1,2-b]pyridazin-6-yl)-1-isopropyl-1H-indazol-3-yl)methoxy)phenyl)acetic acid], for which the IC50 was over 10 µM. Regarding `CC(C)n1nc(COc2ccccc2CC(=O)O)c2cc(-c3cccc4cnc(N)cc34)ccc21` [Compound 56c, 2-(2-((5-(3-aminoisoquinolin-5-yl)-1-isopropyl-1H-indazol-3-yl)methoxy)phenyl)acetic acid], the 50% inhibitory concentration (IC50) is over 10 µM.

In the case of `Cn1nc(COc2ccccc2CC(=O)O)c2cc(-c3ccc4ccnc(N)c4c3)ccc21` [Compound 57b, 2-(2-((5-(1-aminoisoquinolin-7-yl)-1-methyl-1H-indazol-3-yl)methoxy)phenyl)acetic acid], the IC50 is under 1 µM. Take `Cn1nc(COc2ccccc2CC(=O)O)c2cc(-c3cccc4c(N)nccc34)ccc21` [Compound 58b, 2-(2-((5-(1-aminoisoquinolin-5-yl)-1-methyl-1H-indazol-3-yl)methoxy)phenyl)acetic acid]: the 50% inhibitory concentration (IC50) was under 1 µM. `N=C(N)c1cccc(-c2ccc3c(c2)c(COc2ccccc2CC(=O)O)nn3C2CC2)c1` [Compound 59d, 2-(2-((5-(3-carbamimidoylphenyl)-1-cyclopropyl-1H-indazol-3-yl)methoxy)phenyl)acetic acid]: the 50% inhibitory concentration (IC50) is under 1 µM.

For the compound `Nc1nccc2ccc(-c3ccc4c(c3)c(COc3ccccc3CC(=O)O)nn4C3CC3)cc12` [Compound 60b, 2-(2-((5-(1-aminoisoquinolin-7-yl)-1-cyclopropyl-1H-indazol-3-yl)methoxy)phenyl)acetic acid], the half-maximal inhibitory concentration (IC50) was under 1 µM. Turning to `COc1ccc(CC(=O)O)c(OCc2nn(C(C)C)c3ccc(-c4ccc5ccnc(N)c5c4)cc23)c1` [Compound 61b, 2-(2-((5-(1-aminoisoquinolin-7-yl)-1-isopropyl-1H-indazol-3-yl)methoxy)-4-methoxyphenyl)acetic acid], the IC50 was under 1 µM. In the case of `Cc1ccc(CC(=O)O)c(OCc2nn(C(C)C)c3ccc(-c4ccc5ccnc(N)c5c4)cc23)c1` [Compound 62c, 2-(2-((5-(1-aminoisoquinolin-7-yl)-1-isopropyl-1H-indazol-3-yl)methoxy)-4-methylphenyl)acetic acid], the IC50 was under 1 µM.

Take `CC(C)n1nc(C(=O)Nc2ccccc2CC(=O)O)c2cc(-c3ccc4ccnc(N)c4c3)ccc21` [Compound 63d, 2-(2-(5-(1-aminoisoquinolin-7-yl)-1-isopropyl-1H-indazole-3-carboxamido)phenyl)acetic acid]: the IC50 was in the range of 1 to 10 µM. As to `CC(C)n1nc(COc2ccccc2CC(=O)O)c2cc(-c3cccc(C(=N)N)c3F)ccc21` [Compound 64d, 2-(2-((5-(3-carbamimidoyl-2-fluorophenyl)-1-isopropyl-1H-indazol-3-yl)methoxy)phenyl)acetic acid], the IC50 was under 1 µM. For `Nc1nccc2c(-c3ccc4c(c3)c(COc3ccccc3CC(=O)O)nn4C3CC3)cccc12` [Compound 65b, 2-(2-((5-(1-aminoisoquinolin-5-yl)-1-cyclopropyl-1H-indazol-3-yl)methoxy)phenyl)acetic acid], the half-inhibitory concentration (IC50) was under 1 µM. As for `COc1ccc(CC(=O)O)c(OCc2nn(C3CC3)c3ccc(-c4ccc5ccnc(N)c5c4)cc23)c1` [Compound 66e, 2-(2-((5-(1-aminoisoquinolin-7-yl)-1-cyclopropyl-1H-indazol-3-yl)methoxy)-4-methoxyphenyl)acetic acid], the IC50 was under 1 µM. The result for `CC(C)n1nc(COc2ccccc2CC(=O)O)c2cc(-c3ccc4c(N)n[nH]c4c3)ccc21` [Compound 67c, 2-(2-((3′-amino-1-isopropyl-1H, 1′H-[5,6′-biindazol]-3-yl)methoxy)phenyl)acetic acid] reads over 10 µM. Turning to `CC(C)n1nc(COc2ccccc2CC(=O)O)c2cc(-c3cnc4[nH]nc(N)c4c3)ccc21` [Compound 68c, 2-(2-((5-(3-amino-1H-pyrazolo[3,4-b]pyridin-5-yl)-1-isopropyl-1H-indazol-3-yl)methoxy)phenyl)acetic acid], the half-inhibitory concentration (IC50) is over 10 µM. `Nc1nccc2c(-c3ccc4c(c3)c(COc3ccccc3CC(=O)O)nn4C3CCC3)cccc12` [Compound 69b, 2-(2-((5-(1-aminoisoquinolin-5-yl)-1-cyclobutyl-1H-indazol-3-yl)methoxy)phenyl)acetic acid]: the IC50 was under 1 µM. `CC(C)n1nc(COc2ccccc2CC(=O)O)c2cc(-c3ccc4cccc(N)c4c3)ccc21` [Compound 70c, 2-(2-((5-(8-aminonaphthalen-2-yl)-1-isopropyl-1H-indazol-3-yl)methoxy)phenyl)acetic acid]: the IC50 is over 10 µM. Consider `COc1ccc(CC(=O)O)c(OCc2nn(C)c3ccc(-c4ccc5ccnc(N)c5c4)cc23)c1` [Compound 71d, 2-(2-((5-(1-aminoisoquinolin-7-yl)-1-methyl-1H-indazol-3-yl)methoxy)-4-methoxyphenyl)acetic acid], for which the half-inhibitory concentration (IC50) is under 1 µM.

Regarding `COc1ccc(CC(=O)O)c(OCc2nn(C)c3ccc(-c4cccc5c(N)nccc45)cc23)c1` [Compound 72b, 2-(2-((5-(1-aminoisoquinolin-5-yl)-1-methyl-1H-indazol-3-yl)methoxy)-4-methoxyphenyl)acetic acid], the half-inhibitory concentration (IC50) is under 1 µM.

Consider `COc1ncc(N)c2cc(-c3ccc4c(c3)c(COc3ccccc3CC(=O)O)nn4C(C)C)ccc12` [Compound 73d, 2-(2-((5-(4-amino-1-methoxyisoquinolin-6-yl)-1-isopropyl-1H-indazol-3-yl)methoxy)phenyl)acetic acid], for which the concentration for half-maximal inhibition (IC50) was over 10 µM. The result for `COc1cnc(N)c2cc(-c3ccc4c(c3)c(COc3ccccc3CC(=O)O)nn4C(C)C)ccc12` [Compound 74d, 2-(2-((5-(1-amino-4-methoxyisoquinolin-7-yl)-1-isopropyl-1H-indazol-3-yl)methoxy)phenyl)acetic acid] reads 1 to 10 µM; that for `CC(C)n1nc(COc2ccccc2CC(=O)O)c2cc(-c3ccc4cnc(N)cc4c3)ccc21` [Compound 75c, 2-(2-((5-(3-aminoisoquinolin-6-yl)-1-isopropyl-1H-indazol-3-yl)methoxy)phenyl)acetic acid], over 10 µM; that for `CC(C)n1nc(COc2ccccc2CC(=O)O)c2cc(-c3ccc4c(c3)C(N)CO4)ccc21` (stereo not drawn) [Compound 76c, 2-(2-((5-(3-amino-2,3-dihydrobenzofuran-5-yl)-1-isopropyl-1H-indazol-3-yl)methoxy)phenyl)acetic acid], over 10 µM. As to `CC(C)n1nc(COc2ccccc2CC(=O)O)c2cc(-c3ccc4c(c3)C(O)CC4)ccc21` (stereo not drawn) [Compound 77c, 2-(2-((5-(3-hydroxy-2,3-dihydro-1H-inden-5-yl)-1-isopropyl-1H-indazol-3-yl)methoxy)phenyl)acetic acid], the IC50 is over 10 µM.

One may read the IC50 as the concentration at which inhibition is half-maximal.
